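Briefly, cells in 96-well plates were exposed to five compound concentrations for 48 h, and endpoints were estimated by linear interpolation. GI50 is the concentration that inhibits growth by half. TGI is the concentration that stops growth completely.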
Tests used:
Experiment in all cases: NCI anticancer screen, dose series, 48 h
[1] = test system: CCRF-CEM leukemia
[2] = test system: DU-145 prostate
[3] = test system: MALME-3M melanoma
[4] = test system: NCI-H226 lung
[5] = test system: OVCAR-5 ovarian
[6] = test system: RPMI-8226 leukemia
[7] = test system: SF-268 CNS
[8] = test system: SK-MEL-2 melanoma
[9] = test system: SK-MEL-5 melanoma
[10] = test system: UACC-257 melanoma

Row | Compound | TGI [1] | TGI [2] | TGI [3] | TGI [4] | TGI [5] | TGI [6] | TGI [7] | TGI [8] | TGI [9] | TGI [10] | GI50 [1] | GI50 [2] | GI50 [4] | GI50 [5] | GI50 [6] | GI50 [7] | GI50 [8] | GI50 [9] | GI50 [10] | GI50 [3]
1 | CCOC(=O)C(=Cc1ccc(Oc2ccccc2)cc1)C(=O)OCC | 6.75 µM | 27.5 µM | 7.4 µM | 12.1 µM | 14 µM | 6.89 µM | 9.19 µM | 4.4 µM | 3.9 µM | 6.63 µM |  |  |  |  |  |  |  |  |  | 
2 | COc1ccc(-c2nc3ccccn3c2/C=C/C(=O)c2cc(OC)c(OC)c(OC)c2)cc1 | > 100 µM | 41.1 µM |  | > 100 µM | 82.2 µM | > 100 µM | > 100 µM | > 100 µM | 14.3 µM | > 100 µM | 18.8 µM | 7.21 µM | 24.1 µM | 9.33 µM | 7.5 µM | 4 µM | 4.95 µM | 2.72 µM | 5.85 µM | 
3 | CCN(C(=O)c1cc(F)ccc1Oc1cncnc1N1CC2(CCN(CC3CCC(NS(=O)(=O)CC)CC3)CC2)C1)C(C)C (centres undefined) | > 100 µM | > 100 µM | > 100 µM | > 100 µM | > 100 µM | > 100 µM | > 100 µM | > 100 µM | > 100 µM | > 100 µM | > 100 µM | > 100 µM | > 100 µM | > 100 µM | > 100 µM | > 100 µM | > 100 µM | > 100 µM | > 100 µM | > 100 µM
4 | COc1ccc(/C(C#N)=C/c2ccc(OC)c(OC)c2)cc1 | > 100 µM | > 100 µM | > 100 µM | > 100 µM | > 100 µM | > 100 µM | > 100 µM | > 100 µM | > 100 µM | > 100 µM |  |  |  |  |  |  |  |  |  | 
5 | C[C@@H](CO)[C@@H]1CCC=C2CC[C@]3(C)[C@H](CC[C@@H]4[C@@]5(C)CCCNC(C)(C)[C@@H]5CC[C@]43C)[C@H]21 | 13.9 µM | 11.3 µM | 3.36 µM | 35.3 µM | 12.6 µM |  | 19.5 µM | 4.29 µM | 3.18 µM | 7.08 µM | 3.08 µM | 3.36 µM | 14.6 µM | 3.18 µM |  | 4.48 µM | 2.08 µM | 1.77 µM | 2.59 µM | 1.71 µM
6 | O=C(NCc1ccc(Cn2c(=O)sn(-c3ccccc3)c2=O)cc1)OCc1ccc2c(Br)cc(Br)c(O)c2n1 | > 100 µM | 2.19 µM | 2.78 µM | 2.41 µM | 2.97 µM | 1.72 µM | 2.88 µM | 2.82 µM | 2.75 µM | 2.74 µM | 0.351 µM | 0.992 µM | 1.02 µM | 1.43 µM | 0.312 µM | 1.46 µM | 1.34 µM | 1.44 µM | 1.26 µM | 1.38 µM
7 | c1cc(CNCCN2CCNCC2)ccn1 |  | > 100 µM | > 100 µM | > 100 µM | > 100 µM | > 100 µM | > 100 µM | > 100 µM | > 100 µM | > 100 µM |  |  |  |  |  |  |  |  |  | 
8 | O=[N+]([O-])c1cccc(-c2oc(C=Nc3ccccc3)c([N+](=O)[O-])c2-c2cccc([N+](=O)[O-])c2)c1 | > 100 µM |  | > 100 µM | > 100 µM | > 100 µM | > 100 µM | > 100 µM | > 100 µM | > 100 µM | > 100 µM |  |  |  |  |  |  |  |  |  | 
9 | O=C1C2C3C=CC(C2C(=O)N1COP(=O)(O)O)C1C2C(=O)N(COP(=O)(O)O)C(=O)C2C31 (centres undefined) | > 60.7 µM |  | > 100 µM | > 100 µM | > 100 µM | > 68.5 µM | > 100 µM | > 100 µM | > 100 µM | > 100 µM |  |  |  |  |  |  |  |  |  | 
10 | C=C1CC/C=C(\C)C(=O)C[C@@H]2[C@@H]1CC2(C)C |  | 16.6 µM | 10.5 µM | 42.8 µM | 27.3 µM | > 100 µM | 52.7 µM | 43.8 µM | 10.5 µM | 16 µM |  |  |  |  |  |  |  |  |  | 
11 | NC(=O)c1cc(-c2ccc(F)cc2)cc(-c2ccncc2)c1N | > 25 µM | > 25 µM | > 25 µM | > 25 µM | > 25 µM | > 25 µM | > 25 µM | > 25 µM | > 25 µM | > 25 µM | > 25 µM | > 25 µM | 19.9 µM | > 25 µM | > 25 µM | > 25 µM | > 25 µM | > 20.2 µM | > 25 µM | > 25 µM
12 | COc1cc(COC(=O)N(CC(=O)O)c2ccccc2)c([N+](=O)[O-])cc1OC | > 100 µM | > 100 µM | > 100 µM | > 100 µM | > 100 µM | > 100 µM | > 100 µM |  | > 100 µM | > 100 µM |  |  |  |  |  |  |  |  |  | 
13 | O=c1[nH]c(=O)n(C2CC(O)C(CO)O2)cc1C1=NC1 (centres undefined) |  | > 100 µM |  | > 100 µM | > 100 µM | > 100 µM | > 100 µM | > 100 µM | > 100 µM | > 100 µM |  |  |  |  |  |  |  |  |  | 
14 | NCCCNCCCCN(CCCN)/[N+]([O-])=N\O | > 100 µM |  | > 100 µM | > 100 µM | > 100 µM | > 100 µM | > 100 µM | > 100 µM | > 100 µM | > 100 µM |  |  |  |  |  |  |  |  |  | 
15 | CC1OC(OC2C(O[C@H]3CC[C@@]4(C)C(=CC[C@H]5[C@@H]6C[C@@H]7O[C@]8(CC[C@H](C)CN8)[C@@H](C)[C@@H]7[C@@]6(C)CC[C@@H]54)C3)OC(CO)C(O)C2OC2OC(CO)C(O)C(O)C2O)C(O)C(O)C1O (some centres undefined) | 39.3 µM | 33.6 µM | 34.5 µM | 38.2 µM | 28.7 µM |  | 33.3 µM | 32.4 µM | 33.6 µM | 33 µM |  |  |  |  |  |  |  |  |  | 
16 | C=C(Br)N(CC)CC | > 100 µM |  | > 100 µM | > 100 µM | > 100 µM | > 100 µM | > 100 µM | > 100 µM | > 100 µM | > 100 µM |  |  |  |  |  |  |  |  |  | 
17 | O=C(CC1(O)C(=O)Nc2c(Cl)cc(Cl)cc21)c1cccc2ccccc12 (centres undefined) | 41.3 µM |  | 35.2 µM | 31.1 µM | 37.1 µM | 47.4 µM | 40.4 µM | 32.6 µM | 28.4 µM | 29.8 µM |  |  |  |  |  |  |  |  |  | 
18 | COc1cc(OC)c(C2CC=Cc3c(OC)cc(OC)c(OC)c32)cc1OC (centres undefined) | > 100 µM |  | > 100 µM | > 100 µM | > 100 µM | > 100 µM | > 100 µM | > 100 µM | > 100 µM | > 100 µM |  |  |  |  |  |  |  |  |  | 

From PubChem BioAssay (NCI)
